PubChem BioAssay (NCI)
Several values for one entry are separate records, joined by “and”; a condition that tells them apart may be missing. Equal values may be shown once.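 Tested at 5 concentrations; 48 h exposure; 96-well plates; endpoints linearly interpolated, else capped at highest concentration. GI50 = concentration required for 50% inhibition of growth. The concentration for full growth arrest is given as TGI.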

Tests used:
Experiment in all cases: growth of human tumour cells (NCI), 48 h
EKVX NSCLC = system: EKVX NSCLC
HS 578T breast = system: HS 578T breast
IGROV1 ovarian = system: IGROV1 ovarian
LOX IMVI melanoma = system: LOX IMVI melanoma
MDA-MB-231 breast = system: MDA-MB-231 breast
RXF 393 renal = system: RXF 393 renal
SK-MEL-28 melanoma = system: SK-MEL-28 melanoma
SNB-19 CNS = system: SNB-19 CNS
U251 CNS = system: U251 CNS
UO-31 renal = system: UO-31 renal

Row | SMILES | GI50 (EKVX NSCLC) [µM] | TGI (EKVX NSCLC) | GI50 (HS 578T breast) | TGI (HS 578T breast) | GI50 (IGROV1 ovarian) | TGI (IGROV1 ovarian) | GI50 (LOX IMVI melanoma) [µM] | TGI (LOX IMVI melanoma) | GI50 (MDA-MB-231 breast) [µM] | TGI (MDA-MB-231 breast) | GI50 (RXF 393 renal) | TGI (RXF 393 renal) | GI50 (SK-MEL-28 melanoma) | TGI (SK-MEL-28 melanoma) | GI50 (SNB-19 CNS) [µM] | TGI (SNB-19 CNS) | GI50 (U251 CNS) [µM] | TGI (U251 CNS) | GI50 (UO-31 renal) | TGI (UO-31 renal)
1 | O=C(CN1CCN(c2ncccn2)CC1)Nc1ccc(Cl)cc1C(=O)c1ccccc1Cl | > 100 | > 100 µM | 83.6 µM | > 100 µM | 93.2 µM | > 100 µM | > 100 | > 100 µM | > 100 | > 100 µM | > 100 µM | > 100 µM | > 100 µM | > 100 µM | > 100 | > 100 µM | > 100 | > 100 µM | > 100 µM | > 100 µM
2 | O=[N+]([O-])c1ccc(C(c2c[nH]c3ccccc23)c2c[nH]c3ccccc23)cc1 |  | 48.2 µM |  | 51.1 µM |  |  |  | 41.2 µM |  | 29.3 µM |  |  |  | 36.1 µM |  | 35.8 µM |  | 45.3 µM |  | 22.9 µM
3 | Nc1nc(SCc2ccccn2)c2ncn(C3CCCC3)c2n1 |  | > 100 µM |  | 88.5 µM |  | > 100 µM |  | > 100 µM |  | > 100 µM |  | > 100 µM |  | > 100 µM |  | > 100 µM |  | > 100 µM |  | 32.7 µM
4 | ClCc1cccc(Cn2cnc3c(Cl)ncnc32)c1 | 18.6 | 34.1 µM | 3.48 µM | 11.5 µM | 9.31 µM | 33.5 µM | 1.96 | 5.02 µM | 1.99 | 4.04 µM | 2.28 µM | 24 µM | 2.23 µM | 5.69 µM | 2.66 | 12.5 µM | 1.8 | 3.48 µM | 14.4 µM | 35.9 µM
5 | COc1cccc(C2CC(C)(N3CCCC3)Oc3cc4c(cc32)OCO4)c1O (centres undefined) |  | > 100 µM |  | 57.7 µM |  | 99.2 µM |  | > 94.5 µM |  | 80.5 µM |  | > 80.6 µM |  | > 51.5 µM |  | > 100 µM |  | 77.4 µM |  | > 96.3 µM
6 | COc1cc(C2CC(c3ccc(C)cc3)=NN2C=O)ccc1Oc1ccnc2cc(Cl)ccc12 (centres undefined) | 7.75 | > 50 µM | 1.82 µM | > 50 µM | 24.8 µM | > 50 µM | > 50 | > 50 µM | 4.23 | 43.8 µM | 4.16 µM | 20.5 µM | > 50 µM | > 50 µM | 9.53 | > 50 µM | 6.5 | 21.4 µM | > 50 µM | > 50 µM
7 | COc1cc(C2C=C(c3cccc(NC(C)=O)c3)Nc3ncnn32)cc(OC)c1OC (centres undefined) | 0.737 | > 100 µM | 0.153 µM | 0.413 µM | 0.65 µM | > 26.5 µM | 0.596 | > 100 µM | 2.11 | > 55.9 µM | 0.576 µM | > 100 µM | 0.29 µM | > 100 µM | 1.21 | > 100 µM | 0.395 | > 100 µM | 33.5 µM | > 100 µM
8 | COc1cc(-c2nn(-c3ccc(NC(=O)c4ccc(Cl)c(Cl)c4)cc3)cc2-c2ccncc2)ccc1Cl | 6.82 | > 100 µM | 4.13 µM | > 100 µM | > 100 µM | > 100 µM | 2.76 | > 100 µM | 3.66 | > 100 µM | 1.5 µM | 4.53 µM | 40.3 µM | > 100 µM | 26.7 | > 100 µM | 5.7 | > 100 µM | 2.73 µM | 9.85 µM
9 | COc1cc2c3c(n(C)c(=O)c2cc1OC)-c1cc2c(cc1/C3=C\CCCCCN)OCO2 | 16.4 | 52.2 µM | 11.7 µM | 46.1 µM | < 0.01 µM | 1.34 µM |  |  | 2.5 | 12.9 µM | 7 µM | 41 µM | 33.7 µM | > 100 µM | 2.49 | 76.5 µM | 1.56 | 16.7 µM | 2.08 µM | > 100 µM
10 | COc1ccc(C(=O)/C(Br)=C/C(=O)O)cc1 | 28 | 181 µM and 115 µM | 43.1 µM and 30.9 µM | 649 µM and 399 µM | 121 µM and 144 µM | 321 µM and 461 µM | 18.1 | 53.2 µM and 53 µM | 53.7 | 84 µM and 115 µM | 6.8 µM and 15.1 µM | 19.4 µM and 50 µM |  | 89.1 µM and 89.4 µM | 56.3 | 188 µM and 375 µM |  | 46.5 µM and 52.1 µM | 20.3 µM | 77.7 µM and 103 µM
11 | C=CCn1c2c(c3ccccc3c1=O)C(=O)c1ccccc1-2 |  | > 100 µM |  | > 100 µM |  | > 100 µM |  | > 100 µM |  | > 100 µM |  | > 100 µM |  | > 100 µM |  | > 100 µM |  | > 100 µM |  | > 100 µM
12 | COc1ccc2nc(N/N=C(\C)c3ccccn3)cc(C)c2c1 | 0.134 | 0.971 µM | 1.76 µM | 9.39 µM | 0.219 µM | 1.05 µM | 0.236 | 1.28 µM | 0.232 | 1.87 µM |  |  | 0.445 µM | 1.68 µM | 0.382 | 2.12 µM | 0.261 | 1.28 µM | 0.161 µM | 1.08 µM
13 | CN1CC[C@@H](c2c(O)cc(O)c3c(=O)cc(-c4ccccc4Cl)oc23)[C@@H](O)C1 | 0.141 | 0.435 µM and 0.947 µM | 0.0675 µM and 0.11 µM and 0.0213 µM |  |  | > 100 µM | 0.0289 | > 100 µM | 0.168 | 0.613 µM and 2.86 µM | 0.0481 µM and 0.0218 µM and 0.0196 µM | 0.0892 µM and 0.0495 µM and 0.0428 µM | 0.101 µM and 0.0902 µM | 0.294 µM and 1.45 µM | 0.103 | > 37.3 µM |  | 31 µM | 0.0713 µM and 0.0363 µM and 0.0238 µM | 0.876 µM and 0.164 µM and 1.18 µM
14 | O=C1NCc2ccc3c(-c4cccc(Cl)c4)c[nH]c3c21 | 0.381 | > 50 µM | 0.182 µM | > 50 µM | 0.316 µM | > 50 µM | 0.279 | > 50 µM | 0.838 | > 25.7 µM | 0.296 µM | > 15.4 µM | 2.21 µM | > 50 µM | 0.29 | > 50 µM | 0.247 | > 50 µM | 0.465 µM | > 23.5 µM
